From US9862748B2, “Peptide compounds and methods of production and use thereof” (priority 2012, dated 2018)

How the values were obtained:
[1] = tested on: Pseudomonas aeruginosa ATCC® 27853™; format: cell-based; conditions: 3.12-25 μM; 180 minutes
Summary of the method: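 P. aeruginosa ATCC 27853 at 1×10^6 CFU/ml incubated 180 min with peptides (25–3.12 μM, pH 5.5 or 7.2; or 150–37.5 μg/ml, pH 5.5) versus tryptone saline; gentamicin 4 μg/ml control. Surviving CFU counted after overnight plating, expressed as log reduction in CFU/ml.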

corneas = test: Corneal cytokines after intrastromal injection (MILLIPLEX MAP mouse cytokine assay); format: in vivo; conditions: intrastromal 0.5 μl, 10^−4, 10^−5, 10^−6 M; 24 and 48 hours
Description: Corneas were injected intrastromally with 0.5 μl of peptide 95-122 at a final concentration of 10^−4 M, 10^−5 M, and 10^−6 M and vehicle (saline) control. Corneas were collected and flash frozen at 24 hours and 48 hours. Corneal lysates were analyzed for cytokines using the MILLIPLEX® MAP mouse cytokine assay for IL-7 (A), IL-15 (B), IFN-γ (C), MIP1-α (D) (EMD Millipore Corp., Billerica, Mass.). The means of independent experimental values are shown ±SEM. ***P<0.001, **P<0.01, *P<0.05 by unpaired t-test as compared to vehicle treated controls. […] Corneas were injected intrastromally with 0.5 μl of peptide 95-122 at a final concentration of 10^−4 M, 10^−5 M, and 10^−6 M and vehicle (saline) control. Corneas were collected and flash frozen at 24 hours and 48 hours. Corneal lysates were analyzed for cytokines using the MILLIPLEX® MAP mouse cytokine assay for MIP1-β (EMD Millipore Corp., Billerica, Mass.). **P<0.01, *P<0.05 by unpaired t-test as compared to vehicle treated controls. […] Corneas were injected intrastromally with 0.5 μl of peptide 95-122 at a final concentration of 10^−4 M, 10^−5 M, and 10^−6 M and vehicle (saline) control. Corneas were collected and flash frozen at 24 hours and 48 hours. Corneal lysates were analyzed for cytokines using the MILLIPLEX® MAP mouse cytokine assay for KC (A), IL-1β (B), and GM-CSF (C) (EMD Millipore Corp., Billerica, Mass.). **P<0.01, *P<0.05 by unpaired t-test as compared to vehicle treated controls.

swine skin wounds = test: Swine full thickness excisional dermal wound model, wound area; format: in vivo
Description: In this Example, peptide compounds of the presently disclosed and claimed inventive concept(s) were evaluated as to their activity on the dermal wound healing process in a clinically relevant swine full thickness excisional wound model. Three different peptide formulations (Group B, Peptide 95-122 (SEQ ID NO: 26); Group C, Peptide 120-146WH (SEQ ID NO: 31); and Group D, Peptide 120-146QH-5RMP (SEQ ID NO: 33)) were each evaluated at the same concentration (3 mg/ml). Sterile saline served as the control (Group A).
Full thickness excisional wounds were induced on the dorsum of swine (N=3) using a 1.0 cm biopsy punch. Treatments were administered (0.20 ml) to each wound (N=6 wounds per group), and the wounds were dressed with standard occlusive dressing ([…]™, 3M Corporation, St. Paul, Minn.). Treatments were reapplied daily and dressings changed. Clinical wound healing observations and wound area (2 mm) measurements were performed on days 0, 3, 5, 7, 10, and 14 post-wounding. Wound area (2 mm) data were expressed as percentage (%) of wound healing. Animals were terminated on day 14 with wounds harvested and processed for histological evaluation. […] All peptide formulation treatment groups healed faster with greater rate of closure and re-epithelialization over time, as compared to the saline control (Group A).

[2] = 3 mg/ml, 0.20 ml per wound, reapplied daily

Sequence: LDREANLTSSVTILPLPLQNATVEAGTR (listed as Homo sapiens) [Peptide 95-122]
- activity against Pseudomonas aeruginosa at either pH (5.5, 7.2) [1]: not active
- GM-CSF in corneal lysates (corneas): significantly increases
- IFN-γ in corneal lysates (corneas): significantly increases
- IL-1β in corneal lysates (corneas): significantly increases
- IL-7 in corneal lysates (corneas): significantly increases
- IL-15 in corneal lysates (corneas): significantly increases
- KC in corneal lysates (corneas): significantly increases
- MIP1-0 (MIP1-β) in corneal lysates (corneas): significantly increases
- MIP1-α in corneal lysates (corneas): significantly increases
- Mean Wound Healing (%) Day 0 (swine skin wounds; [2]): 0.0%
- Mean Wound Healing (%) Day 3 (swine skin wounds; [2]): 28.9%
- Mean Wound Healing (%) Day 5 (swine skin wounds; [2]): 41.5%
- Mean Wound Healing (%) Day 7 (swine skin wounds; [2]): 70.8%
- Mean Wound Healing (%) Day 10 (swine skin wounds; [2]): 99.7%
- Mean Wound Healing (%) Day 14 (swine skin wounds; [2]): 100.0%
- dermal wound healing (swine skin wounds; topical 3 mg/ml over 14 days, vs saline): accelerate dermal wound healing
